The record followed here is patent EP0915099A1, “Antiparallel oligopeptides and hydrophobically complementary oligopeptides, matrices containing them and use thereof in the purification and detection of subtypes of alpha interferon” (ALFA WASSERMANN S.p.A., priority 1997, dated 1999).

In this assay the test system is subtypes of Hu-IFNα. Put plainly: affinity of the peptides in solution and bound to solid supports (affinity chromatography). The class given is binding, human. To be noted: both in solution and bound to solid supports. The text has this:
Therefore they can be used, when bound to suitable matrices on solid supports, in affinity chromatography for the separation and purification of the subtype Hu-IFNα8. Moreover, when conveniently functionalized, they can be used for the specific detection of Hu-IFNα8 in analytical techniques like the detection of compounds splitted in SDS-PAGE and transferred on nitrocellulose sheets (SDS-PAGE-blotting) or the detection of compounds immobilized on solid supports (enzyme linked immuno sorbent assay or ELISA). Therefore the matrices on solid supports for the affinity chromatography to which the IFNα-AP, IFNω-AP, IFNα-IC and IFNω-IC oligopeptides are linked and the use thereof in the separation and purification of the Hu-IFNα8 protein are a further object of the invention.
Each of the peptides from number 1 to number 6, at the end of the synthesis, has been linked to a solid support useful for affinity chromatographies, preferably made by a polymeric resin based on acrylamide or agarose, and each matrix functionalized in this way has been packed on a chromatographic column on which, at a neutral pH, a mixture of Hu-IFNα having a specific activity between 1 e 100 x 10^5 international units for each milligram of total proteins (IU/mg) and with a Hu-IFNα concentration between 0.1 and 5 x 10^6 IU has been pressed through. […]

On to “H-Gly-Phe-His-Asp-Phe-His-Ser-Asp-Asn-Phe-OH (H-GFHDFHSDNF-OH) [IFNω-AP]”, for which the “affinity for subtypes of Hu-IFNα” value is listed as “only for some subtypes of Hu-IFNα, mainly for the subtype IFNα8”.

Regarding “H-Gly-Ser-His-Asp-Phe-Cys-Ser-Asp-Asn-Leu-OH (H-GSHDFCSDNL-OH) [IFNα-AP]”, the “affinity for subtypes of Hu-IFNα” value is reported as “only for some subtypes of Hu-IFNα, mainly for the subtype IFNα8”.
